From patent US10500198B2, “Bis-benzylidine piperidone proteasome inhibitor with anticancer activity” (The Johns Hopkins University, priority 2013, dated 2019)

Key:
RPN13 = molecular target: T1, RPN13 (Homo sapiens, UniProt Q16186); assay: Biotin labeling assay; assay type: binding; conditions: cell lysate or purified RP, streptavidin-peroxidase blot
T1 construct: endogenous in cells; host or cells: HeLa, HS578T cell lysate
Protocol: FIGS. 10 A-10E show a series of graphs and immunoblots showing the effects of several compounds on cell viability and proteasome activity. […] 10B and 10C show immunoblots of the proteasome activity of cell lines treated with the indicated compounds. […] IC50 values were determined in triplicate. In FIG. 10B, HeLa cells were treated for 12 hr and the cell lysate was subjected to immunoblot analysis with anti-Ubiquitin antibody. In FIG. 10C, SiHa cells were treated with the indicated compounds for 12 hr and the lysate subjected to Western blot analysis with anti-Ubiquitin antibody. HeLa cell lysate was treated with RA190B, subjected to SDS-PAGE, and probed with streptavidin-peroxidase following protein transfer to a polyvinylidene difluoride (PVDF) membrane. The streptavidin-peroxidase bound to biotinylated cellular proteins, but a striking new band at 42 kDa appeared in RA190B-treated samples (FIG. 2A). […] IC50 values were determined in triplicate.
To eliminate the possibility that another RP component was required for RA190B interaction, RPN13 or an irrelevant protein (L2) was overexpressed in bacteria. Cell lysate harvested from bacteria either with or without […] induction of ectopic protein expression was labeled with RA190B and probed by blotting with streptavidin-peroxidase. RA190B reacted strongly with a 42 kDa protein only in lysates of bacteria expressing RPN13 (FIG. 2D). […] 800 μL fractions were collected and alternate fractions (1,3,5,7,9,11,13,15,17) were analyzed for the presence of proteasomal proteins (RPN13, RPN2, RPN1 and UCH37) by Western blot analysis.
Human cells (5×10^6 HeLa or 293TT cells) were lysed using MPER (Pierce) lysis buffer (500 μL). RPN13 or HPV L2 transformed bacterial cells (500 μL of culture) were centrifuged to harvest the cells which were re-suspended in 500 μL BPER (Pierce). Cell lysates were centrifuged at 10,000 rpm briefly (2 min) at 4° C. to remove cell debris. Lysate supernatant (200 μL) was pre cleared with streptavidin dyna beads (20 μL) for 1 h at 4° C. to remove non-specific biotin binding and incubated with compounds (indicated concentrations or 20 μM) at 4° C. for 1 hr. An equal amount of each sample (20 μL of lysate) was mixed with an equal volume of Laemmli sample buffer (20 μL) (BioRad) and was boiled for 5 min. […] (24 V). Membrane was blocked with 5% BSA in PBST for 1 hr at room temperature and washed for 20 min (3×PBST). Then the membrane was probed with HRP-streptavidin (1:10,000 in PBST) for 1 hr at room temperature and washed for 30 min (3×PBST) and developed using HyGLO chemiluminescent detection reagent (Denville) for biotin recognition. For the purified enzyme assay, 19S purified proteasome (R&D Systems, Cat. No. E-366) (500 ng) in 19S buffer (20 mM HEPES, 20 mM NaCl, 1 mM DTT, 15% Glycerol) was incubated with compounds (20 μM) for 1 hr at room temperature and mixed with an equal volume of Laemmli sample buffer (20 μL) (BioRad) and was boiled for 5 min. Each sample was loaded onto gel and followed the western blot protocol mentioned above.
Purified 19S proteasome (500 ng) was incubated with corresponding compounds for 30 min and subjected to immunoblot and probed with HRP-conjugated streptavidin. In FIG. 23, the single band at 42 KDa indicates Rpn13 binding to 195. RA183B (20 μM) is used as positive control for Rpn13 binding. Competition experiments were done with RA183 (100 μM) and RA195 (100 μM) along with RA195B (20 μM).

[1] = tested on: HCC 1806, HS578T, BT549 and MB-231 breast cancer cells; assay: Viability of triple negative breast cancer cell lines; assay type: cell-based; conditions: 48 hours
Protocol: To test the efficacy of various RA compound derivatives on the viability of breast cancer cells, breast cancer cell lines were treated in vitro with varying concentrations of selected compounds. […] FIGS. 16A-16E are a series of data graphs and a western blot showing the efficacy of select compounds against various breast cancer cell lines. […] Briefly HS578T cell lysate was incubated with corresponding compounds for the period of 1 hr at 4 C and subjected to Western blot analysis and probed for HRP-Streptavidin.

T1 sequence (Q16186 whole entry): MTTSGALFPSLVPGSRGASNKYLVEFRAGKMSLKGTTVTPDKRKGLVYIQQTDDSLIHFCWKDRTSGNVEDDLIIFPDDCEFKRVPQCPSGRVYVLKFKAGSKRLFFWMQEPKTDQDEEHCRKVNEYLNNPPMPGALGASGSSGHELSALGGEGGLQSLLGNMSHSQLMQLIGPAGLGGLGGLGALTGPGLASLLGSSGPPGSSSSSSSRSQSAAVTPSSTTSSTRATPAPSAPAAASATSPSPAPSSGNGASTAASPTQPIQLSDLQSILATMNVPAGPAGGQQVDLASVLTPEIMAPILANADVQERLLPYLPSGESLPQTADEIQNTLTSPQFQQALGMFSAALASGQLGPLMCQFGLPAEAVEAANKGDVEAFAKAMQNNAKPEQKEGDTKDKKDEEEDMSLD

labeling of / competition for RPN13 (42 kDa band) (RPN13): competes the binding of RA190B to RPN13
Compound: C=CC(=O)N[C@@H](Cc1ccccc1)C(=O)N1C/C(=C\c2ccc(Cl)c(Cl)c2)C(=O)/C(=C/c2ccc(Cl)c(Cl)c2)C1 [RA190Acr]
potency relative to RA190 [1]: potency similar to RA190
